From patent US12404241B2 (Celgene Corporation, priority 2018, dated 2025)

Biological target: T1, AR (Homo sapiens, UniProt P10275)
T1 construct: endogenous in cells; host or cells: VCaP cells
T1 sequence (P10275 1-920): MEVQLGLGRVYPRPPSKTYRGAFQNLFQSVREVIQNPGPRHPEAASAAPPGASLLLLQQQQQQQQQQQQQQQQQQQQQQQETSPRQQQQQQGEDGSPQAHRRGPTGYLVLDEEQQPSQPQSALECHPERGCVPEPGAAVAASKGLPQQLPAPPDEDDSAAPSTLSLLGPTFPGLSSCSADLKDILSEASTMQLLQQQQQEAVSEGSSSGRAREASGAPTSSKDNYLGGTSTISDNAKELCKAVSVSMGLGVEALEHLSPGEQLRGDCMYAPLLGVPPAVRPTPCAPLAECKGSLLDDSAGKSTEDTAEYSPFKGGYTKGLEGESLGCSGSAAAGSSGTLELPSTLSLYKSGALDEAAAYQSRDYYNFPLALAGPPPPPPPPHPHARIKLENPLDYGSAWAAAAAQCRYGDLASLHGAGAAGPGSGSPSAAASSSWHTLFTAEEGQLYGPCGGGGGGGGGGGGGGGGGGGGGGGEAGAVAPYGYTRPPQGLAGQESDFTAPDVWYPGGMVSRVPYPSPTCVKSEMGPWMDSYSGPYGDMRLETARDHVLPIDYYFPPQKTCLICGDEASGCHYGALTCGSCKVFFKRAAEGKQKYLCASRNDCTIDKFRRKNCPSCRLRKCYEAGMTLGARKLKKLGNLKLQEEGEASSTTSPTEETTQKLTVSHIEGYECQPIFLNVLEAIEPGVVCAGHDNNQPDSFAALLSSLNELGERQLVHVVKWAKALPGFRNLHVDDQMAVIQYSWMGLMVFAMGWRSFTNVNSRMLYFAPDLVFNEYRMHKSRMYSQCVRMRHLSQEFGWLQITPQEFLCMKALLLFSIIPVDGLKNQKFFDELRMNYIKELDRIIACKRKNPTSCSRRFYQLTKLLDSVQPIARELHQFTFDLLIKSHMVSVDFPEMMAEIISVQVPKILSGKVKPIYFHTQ
Assay: VCAP AR Degradation Assay
Assay type: cell-based
Details: for Y (AR degradation efficiency, % of DMSO control): class symbols *; for DC50: class symbols A-C, read-out: DC50
In short: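 VCaP cells treated 24 h at 37 °C with a 10-point 1:3 series (top 5 μM final; 0.1% DMSO control). Lysate AR measured by sandwich ELISA, normalized to DMSO as percent of control; DC50, EC50 and lowest AR level (Y) from four-parameter logistic fit.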

SMILES | Y (AR degradation efficiency, % of DMSO control) | DC50 [nM]
CCc1cc(N2C(=S)N(c3ccc(C#N)c(C(F)(F)F)c3)C(=O)C2(C)C)ccc1OCCN1C[C@H](C)N(CC(=O)Nc2cc(Cl)cc(NC3CCC(=O)NC3=O)c2)C[C@@H]1C (stereo partly drawn) [Example 126, N-(3-chloro-5-(2,6-dioxopiperidin-3-ylamino)phenyl)-2-((2S,5S)-4-(2-(4-(3-(4-cyano-3-(trifluoromethyl)phenyl)-5,5-dimethyl-4-oxo-2-thioxoimidazolidin-1-yl)-2-ethylphenoxy)ethyl)-2,5-dimethylpiperazin-1-yl)acetamide] | * (0<Y<=25%) | < 100
CCc1cc(N2C(=S)N(c3ccc(C#N)c(C(F)(F)F)c3)C(=O)C2(C)C)ccc1OCCN1C[C@@H](C)N(CC(=O)Nc2cccc(NC3CCC(=O)NC3=O)c2)C[C@H]1C (stereo partly drawn) [Example 127, 2-((2R,5R)-4-(2-(4-(3-(4-cyano-3-(trifluoromethyl)phenyl)-5,5-dimethyl-4-oxo-2-thioxoimidazolidin-1-yl)-2-ethylphenoxy)ethyl)-2,5-dimethylpiperazin-1-yl)-N-(3-(2,6-dioxopiperidin-3-ylamino)phenyl)acetamide] | * (0<Y<=25%) | < 100
CCc1cc(N2C(=S)N(c3ccc(C#N)c(C(F)(F)F)c3)C(=O)C2(C)C)ccc1OCCN1C[C@@H](C)N(CC(=O)Nc2cc(Cl)cc(NC3CCC(=O)NC3=O)c2)C[C@H]1C (stereo partly drawn) [Example 128, N-(3-chloro-5-(2,6-dioxopiperidin-3-ylamino)phenyl)-2-((2R,5R)-4-(2-(4-(3-(4-cyano-3-(trifluoromethyl)phenyl)-5,5-dimethyl-4-oxo-2-thioxoimidazolidin-1-yl)-2-ethylphenoxy)ethyl)-2,5-dimethylpiperazin-1-yl)acetamide] | * (0<Y<=25%) | < 100
CCc1cc(N2C(=S)N(c3ccc(C#N)c(C(F)(F)F)c3)C(=O)C2(C)C)ccc1OCCN1C[C@@H](C)N(CC(=O)Nc2cccc(NC3CCC(=O)NC3=O)c2)[C@H](C)C1 (stereo partly drawn) [Example 129, 2-((2R,6R)-4-(2-(4-(3-(4-cyano-3-(trifluoromethyl)phenyl)-5,5-dimethyl-4-oxo-2-thioxoimidazolidin-1-yl)-2-ethylphenoxy)ethyl)-2,6-dimethylpiperazin-1-yl)-N-(3-(2,6-dioxopiperidin-3-ylamino)phenyl)acetamide] | * (0<Y<=25%) | < 100
CCc1cc(N2C(=S)N(c3ccc(C#N)c(C(F)(F)F)c3)C(=O)C2(C)C)ccc1OCCN1C[C@@H](C)N(CC(=O)Nc2cc(Cl)cc(NC3CCC(=O)NC3=O)c2)[C@H](C)C1 (stereo partly drawn) [Example 130, N-(3-chloro-5-(2,6-dioxopiperidin-3-ylamino)phenyl)-2-((2R,6R)-4-(2-(4-(3-(4-cyano-3-(trifluoromethyl)phenyl)-5,5-dimethyl-4-oxo-2-thioxoimidazolidin-1-yl)-2-ethylphenoxy)ethyl)-2,6-dimethylpiperazin-1-yl)acetamide] | * (0<Y<=25%) | < 100
CCc1cc(N2C(=S)N(c3cnc(C#N)c(C(F)(F)F)c3)C(=O)C2(C)C)ccc1OCCN1CCN(CC(=O)Nc2cc(Cl)cc(NC3CCC(=O)NC3=O)c2)[C@@H](C)C1 (stereo partly drawn) [Example 131, N-(3-chloro-5-(2,6-dioxopiperidin-3-ylamino)phenyl)-2-((S)-4-(2-(4-(3-(6-cyano-5-(trifluoromethyl)pyridin-3-yl)-5,5-dimethyl-4-oxo-2-thioxoimidazolidin-1-yl)-2-ethylphenoxy)ethyl)-2-methylpiperazin-1-yl)acetamide] | * (0<Y<=25%) | < 100
CCc1cc(N2C(=S)N(c3ccc(C#N)c(C(F)(F)F)c3)C(=O)C23CCC3)ccc1OCCN1CCN(CC(=O)Nc2cccc(NC3CCC(=O)NC3=O)c2)CC1 (centres unmarked) [Example 132, 2-(4-(2-(4-(7-(4-cyano-3-(trifluoromethyl)phenyl)-8-oxo-6-thioxo-5,7-diazaspiro[3.4]octan-5-yl)-2-ethylphenoxy)ethyl)piperazin-1-yl)-N-(3-(2,6-dioxopiperidin-3-ylamino)phenyl)acetamide] | * (0<Y<=25%) | < 100
